Experimental findings from US8815249B2 (priority 1999, dated 2014) are described below.

Read-outs that look alike come from different tables or passages of the source. Non-standard residues stand in square brackets, D forms with d. Ava = NCCCCC(=O)O

The test system of assay [1] is normal donor (DR0402) PBMC. The format is cell-based, human.
Assay [2] relates to HIV gp160(843-855) peptide. Type of assay: in vivo. Particulars: B10.A (5R) mice, peptides in saline solution, serum day 35. Here is the method: An ELISA assay for antibody responses following immunization with the experimental peptides indicated above was performed as follows. Fifty microliters (μl) of a solution of the coating peptide at 2 μg/well in 0.1 M carbonate buffer, pH 9.5 was added to each well of a 96-well Nunc-immunoplate (#442404) for an overnight incubation at 4° C. After aspiration, 250 μl of phosphate-buffer saline solution containing 3% fetal bovine serum (assay diluent) was added to each well for 2 hr at RT. After washing three times with assay diluent, 50 μl of 20-times diluted mouse serum in 1:3 serial dilution in assay diluent was added to each well for 2 hr at RT. After washing three times with assay diluent, 50 μl of 1 ÿg/ml biotinylated goat anti-mouse IgG1 or IgG2a was added to each well and incubated for 1 hr at RT. After washing three times with assay diluent, 50 μl of streptavidin-horse radish peroxidase conjugate (1:1000) was added to each well and incubated for 30 min at RT. After washing three times with assay diluent, 100 μl of tetramethylbenzidine/H2O2 solution (Pharmingen 264KK) was added to each well for 15 min in the dark at room temperature. The reaction was stopped with 100 μl 1N H2SO4 in each well and the absorbance was read immediately at 450 nm.
B10.A (5R) mice (H-2^k/b) were immunized with 20 nmole of peptides in 50 μl phosphate-buffered saline solution, intramuscularly in right and left rear legs on days 1 and 2, respectively. On day 14 the mice were boosted intramuscularly with 40 nmole of peptides in 200 μl Hank's balanced salts solution intramuscularly in a rear leg. On day 30 the mice were boosted intravenously with 40 nmole peptides dissolved in Hank's balanced salts solution (HBSS). On day 35 the mice were sacrificed and serum samples were assayed for antibody titers against the HIV gp160(843-855) peptide.

The test system of assay [3] is normal donor (DR0701) PBMC. Type of assay: cell-based, human.

AE-TYR-1 (Ac-ALHIYMDGTMSQVQGSA-NH2): in assay [1], the IFN-γ spots pulsed is recorded as 120 spots and the IFN-γ spots unpulsed came to 0 spots.

Regarding “Ac-LRMK-ava-ava-AYRAIRHIPR-NH2 (Ac-LRMK[Ava][Ava]AYRAIRHIPR-NH2; SMILES CC[C@H](C)[C@H](NC(=O)[C@H](C)NC(=O)[C@H](CCCNC(=N)N)NC(=O)[C@H](Cc1ccc(O)cc1)NC(=O)[C@H](C)NC(=O)CCCCNC(=O)CCCCNC(=O)[C@H](CCCCN)NC(=O)[C@H](CCSC)NC(=O)[C@H](CCCNC(=N)N)NC(=O)[C@H](CC(C)C)NC(C)=O)C(=O)N[C@@H](CCCNC(=N)N)C(=O)N[C@@H](Cc1c[nH]cn1)C(=O)N[C@H](C(=O)N1CCC[C@H]1C(=O)N[C@@H](CCCNC(=N)N)C(N)=O)[C@@H](C)CC) [Ii-Key/two-ava/gp160(843-855)]”, the “Antibody induction, ELISA against HIV gp160(843-855) peptide” value came out at 0.131 in assay [2] (Dilution^−1 20), 0.039 in assay [2] (Dilution^−1 60), 0.027 in assay [2] (Dilution^−1 180) and 0.003 in assay [2] (Dilution^−1 540).

“AE-Her-39 (Ac-LRMK[Ava]GVGSPYVSRLLGICL-NH2; SMILES CC[C@H](C)[C@H](NC(=O)CNC(=O)[C@H](CC(C)C)NC(=O)[C@H](CC(C)C)NC(=O)[C@H](CCCNC(=N)N)NC(=O)[C@H](CO)NC(=O)[C@@H](NC(=O)[C@H](Cc1ccc(O)cc1)NC(=O)[C@@H]1CCCN1C(=O)[C@H](CO)NC(=O)CNC(=O)[C@@H](NC(=O)CNC(=O)CCCCNC(=O)[C@H](CCCCN)NC(=O)[C@H](CCSC)NC(=O)[C@H](CCCNC(=N)N)NC(=O)[C@H](CC(C)C)NC(C)=O)C(C)C)C(C)C)C(=O)N[C@@H](CS)C(=O)N[C@@H](CC(C)C)C(N)=O)”: in assay [3], the IFN-γ spots pulsed stood at 160 spots and the IFN-γ spots unpulsed is on record as 24 spots.

On to “AE-TYR-3 (Ac-LRMK[Ava]NALHIYMDGTMSQVQGSA-NH2; SMILES CC[C@H](C)[C@H](NC(=O)[C@H](Cc1c[nH]cn1)NC(=O)[C@H](CC(C)C)NC(=O)[C@H](C)NC(=O)[C@H](CC(N)=O)NC(=O)CCCCNC(=O)[C@H](CCCCN)NC(=O)[C@H](CCSC)NC(=O)[C@H](CCCNC(=N)N)NC(=O)[C@H](CC(C)C)NC(C)=O)C(=O)N[C@@H](Cc1ccc(O)cc1)C(=O)N[C@@H](CCSC)C(=O)N[C@@H](CC(=O)O)C(=O)NCC(=O)N[C@H](C(=O)N[C@@H](CCSC)C(=O)N[C@@H](CO)C(=O)N[C@@H](CCC(N)=O)C(=O)N[C@H](C(=O)N[C@@H](CCC(N)=O)C(=O)NCC(=O)N[C@@H](CO)C(=O)N[C@@H](C)C(N)=O)C(C)C)[C@@H](C)O)”, for which, in assay [1], the IFN-γ spots pulsed was determined as 310 spots and the IFN-γ spots unpulsed came to 70 spots.

In assay [3], “AE-Her-48 (Ac-LRMK[Ava]VGSPYVSRLLGICL-NH2; SMILES CC[C@H](C)[C@H](NC(=O)CNC(=O)[C@H](CC(C)C)NC(=O)[C@H](CC(C)C)NC(=O)[C@H](CCCNC(=N)N)NC(=O)[C@H](CO)NC(=O)[C@@H](NC(=O)[C@H](Cc1ccc(O)cc1)NC(=O)[C@@H]1CCCN1C(=O)[C@H](CO)NC(=O)CNC(=O)[C@@H](NC(=O)CCCCNC(=O)[C@H](CCCCN)NC(=O)[C@H](CCSC)NC(=O)[C@H](CCCNC(=N)N)NC(=O)[C@H](CC(C)C)NC(C)=O)C(C)C)C(C)C)C(=O)N[C@@H](CS)C(=O)N[C@@H](CC(C)C)C(N)=O)” gave an IFN-γ spots pulsed of 1770 spots and an IFN-γ spots unpulsed of 212 spots.

In assay [3], “AE-Her-47 (Ac-LRMK[Ava]GSPYVSRLLGICL-NH2; SMILES CC[C@H](C)[C@H](NC(=O)CNC(=O)[C@H](CC(C)C)NC(=O)[C@H](CC(C)C)NC(=O)[C@H](CCCNC(=N)N)NC(=O)[C@H](CO)NC(=O)[C@@H](NC(=O)[C@H](Cc1ccc(O)cc1)NC(=O)[C@@H]1CCCN1C(=O)[C@H](CO)NC(=O)CNC(=O)CCCCNC(=O)[C@H](CCCCN)NC(=O)[C@H](CCSC)NC(=O)[C@H](CCCNC(=N)N)NC(=O)[C@H](CC(C)C)NC(C)=O)C(C)C)C(=O)N[C@@H](CS)C(=O)N[C@@H](CC(C)C)C(N)=O)” showed an IFN-γ spots pulsed of 380 spots and an IFN-γ spots unpulsed of 23 spots.

As to “AE-TYR-4 (Ac-LRMK[Ava]ALHIYMDGTMSQVQGSA-NH2; SMILES CC[C@H](C)[C@H](NC(=O)[C@H](Cc1c[nH]cn1)NC(=O)[C@H](CC(C)C)NC(=O)[C@H](C)NC(=O)CCCCNC(=O)[C@H](CCCCN)NC(=O)[C@H](CCSC)NC(=O)[C@H](CCCNC(=N)N)NC(=O)[C@H](CC(C)C)NC(C)=O)C(=O)N[C@@H](Cc1ccc(O)cc1)C(=O)N[C@@H](CCSC)C(=O)N[C@@H](CC(=O)O)C(=O)NCC(=O)N[C@H](C(=O)N[C@@H](CCSC)C(=O)N[C@@H](CO)C(=O)N[C@@H](CCC(N)=O)C(=O)N[C@H](C(=O)N[C@@H](CCC(N)=O)C(=O)NCC(=O)N[C@@H](CO)C(=O)N[C@@H](C)C(N)=O)C(C)C)[C@@H](C)O)”, in assay [1], the IFN-γ spots pulsed was 620 spots and the IFN-γ spots unpulsed was 340 spots.

For the substance AE-Her-37 (Ac-LRMKGVGSPYVSRLLGICL-NH2), in assay [3], the IFN-γ spots pulsed is 560 spots and the IFN-γ spots unpulsed was 65 spots.

In assay [3], “AE-Her-38 (Ac-LRMK[Ava]SPYVSRLLGICL-NH2; SMILES CC[C@H](C)[C@H](NC(=O)CNC(=O)[C@H](CC(C)C)NC(=O)[C@H](CC(C)C)NC(=O)[C@H](CCCNC(=N)N)NC(=O)[C@H](CO)NC(=O)[C@@H](NC(=O)[C@H](Cc1ccc(O)cc1)NC(=O)[C@@H]1CCCN1C(=O)[C@H](CO)NC(=O)CCCCNC(=O)[C@H](CCCCN)NC(=O)[C@H](CCSC)NC(=O)[C@H](CCCNC(=N)N)NC(=O)[C@H](CC(C)C)NC(C)=O)C(C)C)C(=O)N[C@@H](CS)C(=O)N[C@@H](CC(C)C)C(N)=O)” gave an IFN-γ spots pulsed of 210 spots and an IFN-γ spots unpulsed of 27 spots.

In assay [3], “AE-Her-36 (Ac-GVGSPYVSRLLGICL-NH2; listed as Homo sapiens)” showed an IFN-γ spots pulsed of 100 spots and an IFN-γ spots unpulsed of 4 spots.

For “Ac-LRMK-ava-AYRAIRHIPR-NH2 (Ac-LRMK[Ava]AYRAIRHIPR-NH2; SMILES CC[C@H](C)[C@H](NC(=O)[C@H](C)NC(=O)[C@H](CCCNC(=N)N)NC(=O)[C@H](Cc1ccc(O)cc1)NC(=O)[C@H](C)NC(=O)CCCCNC(=O)[C@H](CCCCN)NC(=O)[C@H](CCSC)NC(=O)[C@H](CCCNC(=N)N)NC(=O)[C@H](CC(C)C)NC(C)=O)C(=O)N[C@@H](CCCNC(=N)N)C(=O)N[C@@H](Cc1c[nH]cn1)C(=O)N[C@H](C(=O)N1CCC[C@H]1C(=O)N[C@@H](CCCNC(=N)N)C(N)=O)[C@@H](C)CC) [Ii-Key/one-ava/gp160(843-855)]”, the “Antibody induction, ELISA against HIV gp160(843-855) peptide” value in assay [2] (Dilution^−1 20) is 0.600; in assay [2] (Dilution^−1 60), 0.157; in assay [2] (Dilution^−1 180), 0.073; in assay [2] (Dilution^−1 540), 0.024.

Take AE-TYR-2 (Ac-HNALHIYMDGTMSQVQGSA-NH2): in assay [1], the IFN-γ spots pulsed is on record as 360 spots and the IFN-γ spots unpulsed was 140 spots.

In assay [1], “AE-TYR-6 (Ac-LRMK[Ava]HIYMDGTMSQVQGSA-NH2; SMILES CC[C@H](C)[C@H](NC(=O)[C@H](Cc1c[nH]cn1)NC(=O)CCCCNC(=O)[C@H](CCCCN)NC(=O)[C@H](CCSC)NC(=O)[C@H](CCCNC(=N)N)NC(=O)[C@H](CC(C)C)NC(C)=O)C(=O)N[C@@H](Cc1ccc(O)cc1)C(=O)N[C@@H](CCSC)C(=O)N[C@@H](CC(=O)O)C(=O)NCC(=O)N[C@H](C(=O)N[C@@H](CCSC)C(=O)N[C@@H](CO)C(=O)N[C@@H](CCC(N)=O)C(=O)N[C@H](C(=O)N[C@@H](CCC(N)=O)C(=O)NCC(=O)N[C@@H](CO)C(=O)N[C@@H](C)C(N)=O)C(C)C)[C@@H](C)O)” gave an IFN-γ spots pulsed of 650 spots and an IFN-γ spots unpulsed of 280 spots.
